From US20130116241A1, “NOVEL INHIBITOR COMPOUNDS OF PHOSPHODIESTERASE TYPE 10A” (AbbVie Inc., priority 2011, published 2013)
Where a name gives a salt, the structure may show the parent alone.

biological target: human PDE10A (UniProt Q9Y233); test: Measurement of PDE activity (recombinant enzyme, HTRF cAMP kit); format: biochemical; details: Table 1, substrate 20 nM for PDE10, 60 minutes at 29 C
In short: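 Recombinant human PDE10A (10–250 pM range across PDEs) with 20 nM cAMP substrate in 20 mM Tris-HCl pH 7.5, 10 mM MgCl2, 0.1% BSA, compound pre-mixed with enzyme. Ran 60 min at 29 °C. Remaining cAMP read by HTRF, converted to % of uninhibited activity, and IC50 fitted.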

Chain of human PDE10A (Q9Y233 290-1055 limits assumed): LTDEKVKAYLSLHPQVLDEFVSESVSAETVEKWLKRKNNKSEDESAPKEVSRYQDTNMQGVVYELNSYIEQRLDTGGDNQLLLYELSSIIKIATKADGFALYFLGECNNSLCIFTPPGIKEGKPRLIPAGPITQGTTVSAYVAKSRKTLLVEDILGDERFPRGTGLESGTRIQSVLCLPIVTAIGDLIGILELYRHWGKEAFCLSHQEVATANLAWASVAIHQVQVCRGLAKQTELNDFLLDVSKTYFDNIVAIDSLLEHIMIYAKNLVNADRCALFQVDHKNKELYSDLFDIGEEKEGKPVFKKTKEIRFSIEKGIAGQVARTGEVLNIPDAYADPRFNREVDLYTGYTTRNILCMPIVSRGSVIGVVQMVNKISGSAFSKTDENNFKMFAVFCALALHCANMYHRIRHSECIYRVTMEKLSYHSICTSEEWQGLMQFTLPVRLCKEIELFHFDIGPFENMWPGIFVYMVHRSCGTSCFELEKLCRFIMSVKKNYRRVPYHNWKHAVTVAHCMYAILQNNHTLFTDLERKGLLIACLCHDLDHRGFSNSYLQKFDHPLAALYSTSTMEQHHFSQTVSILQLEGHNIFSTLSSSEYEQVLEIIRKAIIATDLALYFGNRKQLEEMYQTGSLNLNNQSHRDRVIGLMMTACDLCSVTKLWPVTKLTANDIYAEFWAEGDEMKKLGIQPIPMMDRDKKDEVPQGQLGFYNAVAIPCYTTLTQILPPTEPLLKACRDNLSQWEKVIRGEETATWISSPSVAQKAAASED

SMILES	IC50 [nM]
O=c1c2c(N3C4CCC3COC4)cccc2cnn1CCc1cn2ccccc2n1 [compound 338, 2-[2-(imidazo[1,2-a]pyridin-2-yl)ethyl]-8-(3-oxa-8-azabicyclo[3.2.1]oct-8-yl)phthalazin-1(2H)-one]	< 100

same assay, conditions: Table 1, substrate 20 nM for PDE10, 60 minutes at 29 C, read-out: IC50

SMILES	IC50 [nM]
O=c1c2c(-c3ccnc(F)c3)csc2ccn1C1CC1c1ccc2cc(F)ccc2n1 (stereo not drawn) [compound 280]	< 100
O=c1c2c(-c3ccncc3)csc2ccn1C1CC1c1ccc2cc(F)ccc2n1 (stereo not drawn) [compound 281]	< 100
O=c1c2c(-c3cncnc3)csc2ccn1C1CC1c1ccc2ccccc2n1 (stereo not drawn) [compound 282]	< 100
O=c1c2c(-c3ccc(F)nc3)csc2ccn1C1CC1c1ccc2ccccc2n1 (stereo not drawn) [compound 283]	< 100
Cc1ncc(-c2csc3ccn(C4CC4c4ccc5ccccc5n4)c(=O)c23)cn1 (stereo not drawn) [compound 284]	< 100
O=c1c2c(-c3ccnnc3)csc2ccn1C1CC1c1ccc2ccccc2n1 (stereo not drawn) [compound 285]	< 100
O=c1c2c(N3CCOCC3)csc2ccn1C1CC1c1ccc2ccccc2n1 (stereo not drawn) [compound 287]	< 100
O=c1c2c(-c3cccnc3)csc2ccn1C1CC1c1ccc2sccc2n1 (stereo not drawn) [compound 288]	< 100
O=c1c2c(-c3cccnc3)csc2ccn1C1CC1c1ccc2ccccc2n1 (stereo not drawn) [compound 289]	< 100
O=c1c2c(-c3cncnc3)csc2cnn1C1CC1c1ccc2ccccc2n1 (stereo not drawn) [compound 290]	< 100
O=c1c2c(-c3ccncc3)csc2cnn1C1CC1c1ccc2sccc2n1 (stereo not drawn) [compound 291]	< 100
O=c1c2c(-c3ccncc3)csc2ccn1C1CC1c1ccc2sccc2n1 (stereo not drawn) [compound 292]	< 100
O=c1c2c(-c3ccncc3)csc2ccn1C1CC1c1ccc2ccccc2n1 (stereo not drawn) [compound 293]	< 100
O=c1c2c(-c3ccncc3)csc2cnn1C1CC1c1ccc2ccccc2n1 (stereo not drawn) [compound 295]	< 100
O=c1c2cccc(-c3cncnc3)c2ccn1C1CC1c1ccc2ccccc2n1 (stereo not drawn) [compound 296]	100 to 200
O=c1c2cccc(-c3ccncc3)c2ccn1C1CC1c1ccc2ccccc2n1 (stereo not drawn) [compound 297]	< 100
O=c1c2cccc(-c3cccnc3)c2ccn1C1CC1c1ccc2ccccc2n1 (stereo not drawn) [compound 298]	100 to 200
O=c1c2cccc(N3CCOCC3)c2ccn1C1CC1c1ccc2ccccc2n1 (stereo not drawn) [compound 299]	< 100
Cn1cnc(-c2nn(CCc3cn4ccccc4n3)c(=O)c3c(-c4ccncc4)csc23)c1 [compound 302, 5-[2-(imidazo[1,2-a]pyridin-2-yl)ethyl]-7-(1-methyl-1H-imidazol-4-yl)-3-(pyridin-4-yl)thieno[2,3-d]pyridazin-4(5H)-one]	< 100
Cn1cc(-c2nn(CCc3cn4ccccc4n3)c(=O)c3c(-c4ccncc4)csc23)cn1 [compound 303, 5-[2-(imidazo[1,2-a]pyridin-2-yl)ethyl]-7-(1-methyl-1H-pyrazol-4-yl)-3-(pyridin-4-yl)thieno[2,3-d]pyridazin-4(5H)-one]	< 100
O=c1c2c(-c3ccncc3)csc2c(-c2cccnc2)nn1CCc1cn2ccccc2n1 [compound 304, 5-[2-(imidazo[1,2-a]pyridin-2-yl)ethyl]-7-(pyridin-3-yl)-3-(pyridin-4-yl)thieno[2,3-d]pyridazin-4(5H)-one]	< 100
Cc1cc2ccccc2nc1CCn1ccc2scc(-c3ccncc3)c2c1=O [compound 306, 5-[2-(3-methylquinolin-2-yl)ethyl]-3-(pyridin-4-yl)thieno[3,2-c]pyridin-4(5H)-one]	< 100
O=c1c2c(-c3ccncc3)csc2ccn1CCc1ccc2cccc(F)c2n1 [compound 307, 5-[2-(8-fluoroquinolin-2-yl)ethyl]-3-(pyridin-4-yl)thieno[3,2-c]pyridin-4(5H)-one]	200 to 500
O=c1c2c(-c3cccnc3)csc2ccn1CCc1ccc2cc(F)ccc2n1 [compound 308, hydrochloride]	< 100
O=c1c2c(-c3ccncc3)csc2ccn1CCc1ccc2cc(F)ccc2n1 [compound 309, 5-[2-(6-fluoroquinolin-2-yl)ethyl]-3-(pyridin-4-yl)thieno[3,2-c]pyridin-4(5H)-one]	< 100
O=c1c2c(-c3cccnc3)csc2ccn1CCc1cn2ccccc2n1 [compound 310, 5-[2-(imidazo[1,2-a]pyridin-2-yl)ethyl]-3-(pyridin-3-yl)thieno[3,2-c]pyridin-4(5H)-one]	< 100
O=c1c2c(-c3ccncc3)csc2cnn1CCc1cnc2ccccc2n1 [compound 311, hydrochloride]	100 to 200

SMILES	IC50 [nM]
O=c1c2c(-c3ccncc3)csc2cnn1CCc1ccc2ncccc2n1 [compound 312, 5-[2-(1,5-naphthyridin-2-yl)ethyl]-3-(pyridin-4-yl)thieno[2,3-d]pyridazin-4(5H)-one]	< 100
O=c1c2c(-c3cc[nH]n3)csc2cnn1CCc1ccc2ccccc2n1 [compound 315, 3-(1H-pyrazol-3-yl)-5-[2-(quinolin-2-yl)ethyl]thieno[2,3-d]pyridazin-4(5H)-one]	< 100
O=c1c2c(-c3ccncc3)csc2cnn1CCc1nc2ccccc2[nH]1 [compound 317, hydrochloride]	< 100
O=c1c2c(-c3ccncc3)csc2cnn1CCc1ccc2cc(Cl)ccc2n1 [compound 318, hydrochloride]	200 to 500
O=c1c2c(C#Cc3cccnc3)csc2cnn1CCc1ccc2ccccc2n1 [compound 319, hydrochloride]	< 100
O=c1c2c(C#Cc3ccncc3)csc2cnn1CCc1ccc2ccccc2n1 [compound 320, hydrochloride]	200 to 500
Cc1cnc(CCn2ncc3scc(-c4ccncc4)c3c2=O)c(C)c1 [compound 321, 5-[2-(3,5-dimethylpyridin-2-yl)ethyl]-3-(pyridin-4-yl)thieno[2,3-d]pyridazin-4(5H)-one]	100 to 200
O=c1c2c(-c3ccncc3)csc2cnn1CCc1ccc2ccc(F)cc2n1 [compound 322, 5-[2-(7-fluoroquinolin-2-yl)ethyl]-3-(pyridin-4-yl)thieno[2,3-d]pyridazin-4(5H)-one]	200 to 500
Cc1cc2ccccc2nc1CCn1ccc2cccc(-c3ccncc3)c2c1=O [compound 327, 2-[2-(3-methylquinolin-2-yl)ethyl]-8-(pyridin-4-yl)isoquinolin-1(2H)-one]	< 100
O=c1c2c(-c3cc[nH]n3)cccc2cnn1CCc1cn2ccccc2n1 [compound 328, 2-[2-(imidazo[1,2-a]pyridin-2-yl)ethyl]-8-(1H-pyrazol-3-yl)phthalazin-1(2H)-one]	200 to 500
O=c1c2c(N3CCOCC3)cccc2cnn1CCc1ccc2ccccc2n1 [compound 329, hydrochloride]	< 100
O=c1c2c(N3CCCC4(CC3)CNCCO4)cccc2cnn1CCc1cn2ccccc2n1 (stereo not drawn) [compound 330, dihydrochloride]	200 to 500
O=c1c2c(N3CCC[C@@H](O)C3)cccc2cnn1CCc1cn2ccccc2n1 [compound 332]	200 to 500
O=c1c2c(N3CCC[C@H](O)C3)cccc2cnn1CCc1cn2ccccc2n1 [compound 333]	< 100
O=c1c2c(N3CC4(COC4)C3)cccc2cnn1CCc1cn2ccccc2n1 [compound 334, 2-[2-(imidazo[1,2-a]pyridin-2-yl)ethyl]-8-(2-oxa-6-azaspiro[3.3]hept-6-yl)phthalazin-1(2H)-one]	100 to 200
O=c1c2c(C3CCOC3)cccc2cnn1CCc1cn2ccccc2n1 (stereo not drawn) [compound 337, 2-[2-(imidazo[1,2-a]pyridin-2-yl)ethyl]-8-(tetrahydrofuran-3-yl)phthalazin-1(2H)-one]	< 100
O=c1c2c(N3CCC4(COC4)C3)cccc2cnn1CCc1cn2ccccc2n1 [compound 339, 2-[2-(imidazo[1,2-a]pyridin-2-yl)ethyl]-8-(2-oxa-6-azaspiro[3.4]oct-6-yl)phthalazin-1(2H)-one]	< 100
O=c1c2c(N3CCC(O)CC3)cccc2cnn1CCc1cn2ccccc2n1 [compound 341, 8-(4-hydroxypiperidin-1-yl)-2-[2-(imidazo[1,2-a]pyridin-2-yl)ethyl]phthalazin-1(2H)-one]	< 100
Cc1ncc(-c2cccc3cnn(CCc4cn5ccccc5n4)c(=O)c23)cn1 [compound 342, 2-[2-(imidazo[1,2-a]pyridin-2-yl)ethyl]-8-(2-methylpyrimidin-5-yl)phthalazin-1(2H)-one]	100 to 200
O=c1c2c(-c3cnc(C4CC4)nc3)cccc2cnn1CCc1cn2ccccc2n1 [compound 343, 8-(2-cyclopropylpyrimidin-5-yl)-2-[2-(imidazo[1,2-a]pyridin-2-yl)ethyl]phthalazin-1(2H)-one]	200 to 500
O=c1c2c(-c3ccnnc3)cccc2cnn1CCc1cn2ccccc2n1 [compound 344, 2-[2-(imidazo[1,2-a]pyridin-2-yl)ethyl]-8-(pyridazin-4-yl)phthalazin-1(2H)-one]	100 to 200
O=c1c2c(-c3cncc(F)c3)cccc2cnn1CCc1cn2ccccc2n1 [compound 345, hydrochloride]	100 to 200
COc1ncc(-c2cccc3cnn(CCc4cn5ccccc5n4)c(=O)c23)cn1 [compound 347, 2-[2-(imidazo[1,2-a]pyridin-2-yl)ethyl]-8-(2-methoxypyrimidin-5-yl)phthalazin-1(2H)-one]	100 to 200
O=c1c2c(-c3ccnc(C(F)(F)F)c3)cccc2cnn1CCc1cn2ccccc2n1 [compound 348, 2-[2-(imidazo[1,2-a]pyridin-2-yl)ethyl]-8-[2-(trifluoromethyl)pyridin-4-yl]phthalazin-1(2H)-one]	100 to 200
O=c1c2c(N3CC4CCC(C3)O4)cccc2cnn1CCc1cn2ccccc2n1 [compound 349, 2-[2-(imidazo[1,2-a]pyridin-2-yl)ethyl]-8-(8-oxa-3-azabicyclo[3.2.1]oct-3-yl)phthalazin-1(2H)-one]	< 100
O=c1c2c(C3CCNCC3)cccc2cnn1CCc1cn2ccccc2n1 [compound 354, hydrochloride]	< 100
